Assay results published in patent US6482833B2, “Immunotherapeutic anti-cancer pharmaceutical compositions” (North Shore - Long Island Jewish Research Institute, priority 1997, dated 2002).
“Also recorded” adds a separate entry of the source.

Legend:
[1] = test system: TNFα release from LPS-stimulated macrophage cell cultures; assay: TNF release from LPS-activated monocyte/macrophage cultures counter-regulated by spermine (ELISA); type: cell-based, human; conditions: for override of spermine inhibition of TNFα release: LPS-stimulated cells with spermine, TNFα in culture supernatants, dose-response
Protocol: Macrophage activation was measured by release of TNF into macrophage cell culture supernatants.
Monocytes were isolated and cultured by isolating fresh human PBMCs from EDTA-blood from healthy donors (Long Island Blood Service, Melville, N.Y.) by Ficoll-Paque (Pharmacia, Uppsala, Sweden) gradient. Cells were suspended in RPMI 1640 medium (Gibco BRL, Grand Island, N.Y.) containing 10% heat-inactivated human serum, 0.1% L-glutamine, and 0.01% gentamycin), and cultured at 37° C. in a humidified atmosphere of 5% CO2 and 95% air. PBMCs were plated in 96-well plates at 5×10^5 cells per well for cytokine assay and uptake study or in 24-well plates at 5×10^6 cells per well for RNA study. Nonadherent cells were removed after overnight culture, and adherent cells (monocytes) were then used for experiment.
(§1) Monocytes were activated to release cytokines by treating cells with 100 ng/ml sonicated LPS (Sigma, St Louis, Mo.) and 25 u/ml recombinant human interferon-γ (Boehringer Mannheim, Mannheim, Germany) except 1 μg/ml LPS alone for IL-1β. For treating cells with spermine, cells were pretreated with spermine (Sigma, St Louis, Mo.) one hour before LPS/IFG stimulation. Spermine was made freshly each time in sterile-filtered deionized water at 51.2 mM or 35 mM, and then diluted in complete RPMI 1640 medium followed by adding to individual wells to yield the final concentration indicated. Control wells received an equal volume of medium only were used in all experiment.

B16 F1 tumor cells = assay: In vivo mouse tumor model (B16 F1 cells), tumor size and formation; set-up: species or system mice; conditions: for solid tumor masses: mice, administered parenterally
tumor cells = assay: Direct cytotoxicity of the immunomodulatory compounds; type: cell-based; conditions: effective immunostimulatory concentrations
[2] = Carrageenan foot pad edema model of inflammation; type: in vivo, mice
Protocol: To determine an inflammatory […] foot pad edema model with carrageenan, female C3H/HeN mice (20-25g) were obtained from Jackson Laboratories, and 5 mice were used in each group to obtain statistically significant results. […] Louis, Mo.) was made in PBS at 37° C. 3 days or more before using. […] Louis, Mo.) was made freshly each time. Carrageenan (50 μl, 0.2%) was injected into the plantar surface of the left hind paw to induce paw edema in control group. and spermine at the doses indicated was coadministered in 50 μl PBS in three spermine groups. The right hind paw was injected with the same volume of PBS as control for every groups. The thickness of the two paws was measured double-blindly using a caliper 3 hours and 28 hours later. The difference in the thickness between the two paws was taken as inflammatory index.

TNF = TNF levels in tumor biopsy samples of solid tumor-bearing mice; type: in vivo; conditions: 1 mg/kg ip; tumor biopsy samples in four mice
monocytes = conditions: spermine at the concentrations indicated
Protocol: as §1

G361 cells = assay: Macrophage-mediated cytotoxicity of LPS-activated monocytes to tumor cells
Protocol: Tumor cell cultures were split tumor cells 1:3 in FBS-containing RPMI 1640 medium and incubate overnight 20 μCi/ml ^3H-thymidine was added to tumor cell cultures to label the cells overnight. The cells were washed to remove unabsorbed label. The cells were trypsinized and suspended in 10 ml DPBS, washed and counted. Flasks of 7.5×10^5, 7.5/2×10^5, 7.5/4×10^5, 7.5/8×10^5, 7.5/16×10^5 and 7.7/32×10^5 cells/ml in RPMI 1640 medium were prepared. The tumor cells (200 μl) were added to wells containing 3×10^5 monocytes or control wells to make the E/T ratio 2:1, 4:1, 8:1, 16:1, 32:1 and 64:1. The cell mixture was incubated for 2 hours and macrophage-mediated cytotoxicity to tumor cells was determined.
PBMCs were isolated in a Ficoll-Paque (Pharmacia) gradient and plated. After 2 hours of incubation, the nonadherent cells were removed by rinsing with RPMI 1640 medium without serum 3×, then add 25 ml human serum-containing RPMI 1640 medium with 2 ng/ml human MCSF to each 75 flask and incubate the cells overnight. The cells were labeled with 20 uCi/ml ^3H-thymidine overnight and washed 2× with DPBS without Ca & Mg. The monocytes were isolated and counted, then diluted to 1.5×10^6 cells/ml in RPMI 1640. Tumor cells were diluted to 7.5×10^5, 7.5/2×10^5, 7.5/4×10^5, 7.5/8×10^5, 7.5/16×10^5 and 7.7/32×10^5 cells/ml in RPMI 1640 medium. About 200 μl tumor cells were added at different concentration to the wells containing 3×10^5 monocytes or control wells to make the E/T ratio 2:1, 4:1, 8:1, 16:1, 32:1 and 64:1, then incubated for 2 hrs.
About 400 μg/μl LPS was sonicated for 10 min, then 19.2 μl 400 μg/ml LPS was added to 10 ml RPMI 1640 medium.

[3] = 50 μM spermine, macrophages activated by endotoxin (LPS)

## CC1(C)CC(NCCCCCCNC2CC(C)(C)NC(C)(C)C2)CC(C)(C)N1 [compound 38, N,N′-bis(2,2,6,6-tetramethyl-4-piperidyl)hexamethylenediamine]
[1]
  override of spermine inhibition of TNFα release: overcome spermine inhibition of TNFα release; also recorded: effectively overrode spermine-induced suppression of TNF secretion
B16 F1 tumor cells; mice inoculated with equal amounts of tumor cells, three doses at two concentrations
  tumor formation: delayed tumor formation
B16 F1 tumor cells
  solid tumor masses: shrink solid tumor masses
Tumor cells
  direct cytotoxicity: not cytotoxic
[2]; in vivo mouse paw edema model, dose response
  paw edema, override of inflammatory inhibition by spermine: overrode the inflammatory inhibition by spermine
[2]; mouse foot pad carrageenan model, clinical concentrations
  paw thickness, override of spermine effect: overrides the spermine effect

## NCCCN1CCN(CCCN)CC1 [compound 91]
[1]
  override of spermine inhibition of TNFα release: effectively overrode spermine-induced suppression of TNF secretion
B16 F1 tumor cells; 2 mg/kg
  tumor size, time-response: shrink tumor size
B16 F1 tumor cells; 2 mg/kg administered seven days after tumor inoculation
  growth of established tumors: inhibited the growth of established tumors
B16 F1 tumor cells
  solid tumor masses: shrink solid tumor masses
B16 F1 tumor cells; two doses i.p., 0.5 mg/kg and 2 mg/kg in sterile PBS
  tumor size, time response and dose-response: shrink tumor size
TNF
  TNF levels in tumors: significantly increase TNF levels in tumors
Tumor cells
  direct cytotoxicity: not cytotoxic

## NCCCCC(CN)CCCN (stereo not shown) [compound 94]
Tumor cells
  direct cytotoxicity: not cytotoxic

## C(CCC1CCNCC1)CC1CCNCC1 [compound 214140]
[1]
  override of spermine inhibition of TNFα release: override the inhibitory effect of spermine

## NCCCNCCCCNCCCN [spermine]
[1]; [3]
  suppression of TNF secretion: effectively suppressed TNF secretion
[1]; serum-free conditions and in the presence of the polyamine oxidase inhibitor aminoguanidine
  inhibition of cytokine synthesis: effectively inhibit cytokine synthesis
monocytes
  cell viability (LDH assay): did not affect cell viability significantly
G361 cells; 100 ng/ml LPS, 50 mM spermine, several ratios
  percent cytotoxicity, LPS alone versus LPS with spermine: reduces LPS-induced cytotoxicity
G361 cells; 100 ng/ml LPS, 50-100 μM spermine
  cellular cytotoxicity of activated monocytes against G361 cells: significantly inhibited
G361 cells; [3]
  macrophage-mediated tumor cell killing: effectively suppressed macrophage-mediated tumor cell killing
[2]; local administration in mice
  acute footpad inflammation induced by carageenan: protected mice against the development of acute footpad inflammation
